# From patent US20120034192A1, “COMPOSITIONS AND METHODS FOR ENHANCING CELL REPROGRAMMING” (priority 2008, published 2012)
# Assays:
# G9a HMTase = molecular target: T1, G9a HMTase (Homo sapiens, UniProt Q96KQ7); settings: cited from earlier work
# T1 sequence (Q96KQ7 1-1210): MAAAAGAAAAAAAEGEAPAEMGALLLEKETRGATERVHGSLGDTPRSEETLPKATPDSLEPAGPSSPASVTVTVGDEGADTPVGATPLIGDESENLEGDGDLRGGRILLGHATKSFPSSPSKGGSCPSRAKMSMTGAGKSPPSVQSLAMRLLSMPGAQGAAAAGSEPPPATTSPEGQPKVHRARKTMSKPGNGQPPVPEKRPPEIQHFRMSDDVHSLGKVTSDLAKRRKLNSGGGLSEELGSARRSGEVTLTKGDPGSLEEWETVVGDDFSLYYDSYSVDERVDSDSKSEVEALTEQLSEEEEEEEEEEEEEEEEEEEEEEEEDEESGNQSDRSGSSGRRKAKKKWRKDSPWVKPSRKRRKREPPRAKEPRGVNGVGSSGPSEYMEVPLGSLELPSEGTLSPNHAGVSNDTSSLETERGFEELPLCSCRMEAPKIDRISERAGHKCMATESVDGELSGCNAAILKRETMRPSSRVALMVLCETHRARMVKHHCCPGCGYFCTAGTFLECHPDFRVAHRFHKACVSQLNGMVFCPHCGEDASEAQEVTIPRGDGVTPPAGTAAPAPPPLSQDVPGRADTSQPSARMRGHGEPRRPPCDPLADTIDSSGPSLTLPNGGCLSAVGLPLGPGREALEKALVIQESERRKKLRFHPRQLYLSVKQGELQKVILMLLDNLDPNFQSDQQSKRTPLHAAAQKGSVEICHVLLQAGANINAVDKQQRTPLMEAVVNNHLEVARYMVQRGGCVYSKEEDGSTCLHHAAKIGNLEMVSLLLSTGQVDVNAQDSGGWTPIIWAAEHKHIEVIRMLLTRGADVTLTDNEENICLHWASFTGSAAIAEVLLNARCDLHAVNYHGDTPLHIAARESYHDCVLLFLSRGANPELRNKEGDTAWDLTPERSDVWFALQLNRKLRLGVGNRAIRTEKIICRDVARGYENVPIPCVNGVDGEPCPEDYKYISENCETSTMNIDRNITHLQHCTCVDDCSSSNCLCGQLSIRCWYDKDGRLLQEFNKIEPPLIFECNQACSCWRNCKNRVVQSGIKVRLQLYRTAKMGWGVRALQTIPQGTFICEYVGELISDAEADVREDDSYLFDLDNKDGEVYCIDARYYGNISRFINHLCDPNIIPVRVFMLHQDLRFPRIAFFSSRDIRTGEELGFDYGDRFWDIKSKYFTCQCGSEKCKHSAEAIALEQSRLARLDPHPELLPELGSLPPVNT
# histone deacetylase = settings: cited from earlier work
# [1] = tested on: 2nd KSO cells (secondary mouse embryonic fibroblasts); assay: iPS cell colony formation from 2nd KSO secondary MEFs after siRNA transfection; format: cell-based; settings: siRNA 50 nM
# Excerpt: Applicants next sought to determine the effect of inhibiting H3K9 methyltransferases on generation of iPS cells. For some experiments, Applicants used “secondary” mouse embryonic fibroblasts (MEFs) that express murine reprogramming factors Klf4, Sox2, and Oct4 under the control of a doxycycline (“dox”)-inducible promoter. These cells, which are referred to as “2nd KSO” cells for short, reprogram to form iPS cells at a low frequency upon treatment with doxycycline, as described in the literature. The cells contained an Oct4-neo transgene, thereby allowing use of G418 to select for cells that were reprogrammed to pluripotency (as evidenced by expression from the Oct4 promoter).
# Applicants plated 2nd KSO cells into individual wells of 6-well dishes (100,000 cells per well) in mES cell medium (3 ml) on day 0. On day 1, cells in individual wells were transfected with siRNA (Ambion) designed to inhibit expression of a gene encoding one of the following H3K9 methyltransferases: Ehmt1, Ehmt2, Suv39h1, Suv39h2, and Riz1. Two different siRNAs targeted to each of these genes were used (each well received a single siRNA sequence). […] Accordingly, results obtained using this siRNA must be disregarded. […]
# Cells were treated with dox to induce expression of the reprogramming factors. […] Colonies were counted on day 20.
molecule,measurement,setting,value
COc1cc2nc(N3CCCN(C)CC3)nc(NC3CCN(Cc4ccccc4)CC3)c2cc1OC [BIX-01294],competition with cofactor S-adenosyl-methionine,G9a HMTase,does not compete with the cofactor S-adenosyl-methionine
same,selective inhibition of HMTase and generation of H3K9me2,G9a HMTase; in vitro,selectively impairs the G9a HMTase and the generation of H3K9me2 in vitro
"CC(/C=C/C(=O)NO)=C\[C@@H](C)C(=O)c1ccc(N(C)C)cc1 [Trichostatin A, [R-(E,E)]-7-[4-(Dimethylamino)phenyl]-N-hydroxy-4,6-dimethyl-7-oxo-2,4-heptadienamide]",concentration inhibiting histone deacetylase,histone deacetylase,nanomolar concentrations
"s82302: siRNA (Ambion) vs suv39h2; sense GUGUCGAUGUGGACCUGAAtt, antisense UUCAGGUCCACAUCGACACct (sense GUGUCGAUGUGGACCUGAATT; antisense UUCAGGUCCACAUCGACACCT; chemistry not given here)",cell growth,[1]; 2nd KSO cells,inhibited cell growth
"siRNA #2 against SetDB1: siRNA (Ambion) vs ESET/SetDB1; sense GGACGAUGCAGGAGAUAGAtt, antisense UCUAUCUCCUGCAUCGUCCga (sense GGACGAUGCAGGAGAUAGATT; antisense UCUAUCUCCUGCAUCGUCCGA; chemistry not given here)",number of iPS cell colonies / reprogramming efficiency,"[1]; dox, G418 from day 14, colonies counted on day 20",most striking increase in reprogramming efficiency
